# Values of other authors, collected in patent US20120070472A1, “CHRONOTHERAPEUTIC COMPOSITIONS AND METHODS OF THEIR USE” (Circ Pharma Research & Development Limited, priority 2004, published 2012).
# Conditions: i/v
row,Compound,Elimination Half-Life [h]
1,COc1ccccc1OCCNCC(O)COc1cccc2[nH]c3ccccc3c12 (stereo not drawn) [Carvedilol],2.4

# Same assay, conditions: in vivo
row,Compound,Elimination Half-Life [h]
1,CCCC(=O)Nc1ccc(OCC(O)CNC(C)C)c(C(C)=O)c1 (stereo not drawn) [Acebutolol],2.7
2,C=CCc1ccccc1OCC(O)CNC(C)C (stereo not drawn) [Alprenolol],2.5
3,NS(=O)(=O)c1cc2c(cc1Cl)N=CNS2(=O)=O [Chlorothiazide],1.5
4,COc1ccc([C@@H]2Sc3ccccc3N(CCN(C)C)C(=O)[C@@H]2OC(C)=O)cc1 [Diltiazem],3.7
5,CC(C)N(CCC(C(N)=O)(c1ccccc1)c1ccccn1)C(C)C (stereo not drawn) [Disopyramide],6.0
6,NNc1nncc2ccccc12 [Hydralazine],1.0
7,NS(=O)(=O)c1cc2c(cc1Cl)NCNS2(=O)=O [Hydrochlorothiazide],2.5
8,COC(=O)C1=C(C)NC(C)=C(C(=O)OC(C)C)C1c1cccc2nonc12 (stereo not drawn) [Isradipine],3.8
9,CC(CCc1ccccc1)NCC(O)c1ccc(O)c(C(N)=O)c1 (stereo not drawn) [Labetalol],4.9

# The remaining lines, values ahead:
row,Elimination Half-Life [h],Compound
1,1.1,O=C(NCCO[N+](=O)[O-])c1cccnc1 [Nicorandil]
2,2.5,C=CCOc1ccccc1OCC(O)CNC(C)C (stereo not drawn) [Oxprenolol]
3,3.6,CC(C)NCC(O)COc1cccc2[nH]ccc12 (stereo not drawn) [Pindolol]
4,3.9,CC(C)NCC(O)COc1cccc2ccccc12 (stereo not drawn) [Propranolol]
5,1.6,CC(=O)S[C@@H]1CC2=CC(=O)CC[C@]2(C)[C@H]2CC[C@@]3(C)[C@@H](CC[C@@]34CCC(=O)O4)[C@H]12 [Spironolactone]
6,4.1,CC(C)(C)NC[C@H](O)COc1nsnc1N1CCOCC1 [Timolol]
7,6.0,CCN(CC)CCNC(=O)c1ccc(NC(C)=O)cc1 [n-Acetylprocainamide]

# Same assay, conditions: po
row,Compound,Elimination Half-Life [h]
1,COc1ccccc1OCCNCC(O)COc1cccc2[nH]c3ccccc3c12 (stereo not drawn) [Carvedilol],6.4
